Consider 1 compound from US10039806B2, “Methods and compositions for treating antiprogestin-resistant cancers” (Fundación Sales, priority 2011, dated 2018).

For experiment [1], the system named is epithelial cells from breast cancer samples. The experiment in a line: Primary cultures from breast cancer samples: cell number or Ki67. Format: cell-based, human. The text has this: The samples were obtained at surgery from patients diagnosed with breast cancer at the […]. de Martinez Hospital from General Pacheco and at the […] Hospital of Buenos Aires after signing the informed consent (n=70; median age 55 year). Protocols were approved by the Institutional Ethical Review Board. Whenever possible, one piece of the sample was kept in dry ice immediately after surgery and another piece was kept in culture medium and transported to IBYME. Tumor samples were processed by mechanical and enzymatic degradation and epithelial cells were purified by differential sedimentation techniques (7). The epithelial cells were cultured with DMEM/F12 medium plus 10% fetal calf serum (FCS). Once the cultures were overcrowded, they were subcultured and equal numbers of cells were seeded in 24 well plates. […] OH-Tamoxifen was also used as a control. After one week of treatment, the cells were trypsinized and the total number of cells in each well was counted or alternatively, they were fixed to evaluate the Ki67 (proliferation marker) expression by IHC. In several cases in which there were carcinoma associated fibroblasts intermingled with the epithelial cells, a double staining of Ki67 and cytokeratin (CK) was performed to consider the proliferating cells among the total number of epithelial cells (CK+). An inhibitory index was calculated for each tumor.

Another experiment concerns C4-2-HI tumors. Put plainly: Constitutive-resistant tumor transplanted s.c. in BALB/c mice. Format: in vivo, mouse. On the procedure:
(§1) C4-2-HI, 59-HI, and C4-HIR tumors were transplanted s.c nearby the mammary gland 4th in syngenic mice, and measured every 2 days (length and width). Treatments were initiated when the tumors were palpable. […] The mice were inoculated intraperitoneally (i.p.) with 0.75 mg/kg 5azadC (for C4-2-HI and C4-HIR tumors) or 1 mg/kg 5azadC (for 59-HI tumors) every other day. All the experiments were repeated twice using five mice per group. The animals were euthanized after 13 days of treatment, and tumor samples were removed and frozen at −80° C. or fixed in 10% formaldehyde.
(§2) Cytosolic or nuclear extracts were processed for western blots as described previously. The cells were lysed using Mammalian Protein Extraction Reagent (Pierce, Rockford, Ill.) according the manufacturer's instructions. The western blot membranes were incubated with antibodies against PR (C-19, Santa Cruz Biotech, CA, or Ab-7, Neomarkers, Lab Vision Corp, Fremont, Calif.), PRB (Ab-6, Neomarkers), ERKs (SC-94, Santa Cruz Biotech), E-Cad (610182, BD), Actin (1-19, Santa Cruz Biotech), DnmtI, Dnmt3a and Dnmt3b (H-300, H-295, and H-230, respectively, Santa Cruz Biotech), RARβ (SC-14028, Santa Cruz Biotech), PTEN Ab32199, Abcam), p16 (SC-1207, Santa Cruz Biotech), Rb (SC-50, Santa Cruz Biotech), or glucocorticoid receptors (GRs) (SC-1004, Santa Cruz Biotech) overnight at 4° C., at a concentration of 2 μg/ml in PBST (0.8% NaCl, 0.02% KCl, 0.144% Na2PO4, 0.024% KH2PO4, pH 7.4, 0.1% Tween 20). The band intensities from 3 to 4 different tumor samples indifferent western blots were quantified using Image Quant software.
(§3) Sections of formalin-fixed, paraffin-embedded tissue were processed as previously described and stained with the PRA-specific antibody (C-19) using the avidin-biotin-peroxidase complex technique (Vectastain Elite ABC kit; Vector), as described previously.
(§4) H&E stained sections of livers, spleens, and kidneys from the 5azadC-treated mice (1 mg/kg or 0.75 mg/kg/every other day; n=5) were studied by an expert mouse pathologist. The percentage of tumor stoma versus tumor parenchyma was quantified with the ImageJ software in treated and untreated tumors. The stromal area in relation to the total tumor area was calculated in five representative fields of each sample, using 400× magnification, in three different tumor samples of each group, and the mean±SEM was calculated. Mitotic and apoptotic indices were counted in 10 and 15 high-power fields (HPFs), respectively, of each section, using 1000× magnification, and expressed as the mean±SEM of the percentage of the ratios between the total number of events (mitosis or apoptosis) and the total cell number per HPF. Mitotic figures were identified morphologically by the condensed “hairy” aspect of the chromosomes. Morphological identification of apoptosis was performed according to criteria previously reported, which correlated with the deoxynucleotidyl transferase mediated dUTP-biotin nick end labeling (TUNEL) method.
(§5) C4-2-HI and 59-HI tumors were transplanted s.c nearby the mammary gland 4th in syngenic mice, and measured every 2 days (length and width). Treatments were initiated when the tumors were palpable. […] The mice were inoculated intraperitoneally (i.p.) with 0.75 mg/kg 5azadC every other day and s.c. with 1 mg/kg TSA every other day. All the experiments were repeated twice using five mice per group. The animals were euthanized after 13 days of treatment, and tumor samples were removed and frozen at −80 C or fixed in 10% formaldehyde.

The test system of the next experiment is 59-HI tumors. The description is as above. Format: in vivo, mouse. The following applies: RU-486 12 mg/kg/day s.c.; 5azadC 1 mg/kg every other day i.p.; 13 days. As to the method: as §1, §2, §3, §4, §5
Experiment [2] relates to BT-474 and T47D xenografts. The following applies: 25 mg; mice treated with E2 followed by MPA; cited from earlier work.

For the compound `CC#C[C@]1(O)CC[C@H]2[C@@H]3CCC4=CC(=O)CCC4=C3[C@@H](c3ccc(N(C)C)cc3)C[C@@]21C` [RU-486, mifepristone], in experiment [1] (10^-8 M, one week, 3 out of 8 cases, p<0.05), the “number of cells as compared to the controls” value was “significant decrease in the number of cells”. Besides, in experiment [1] (ER+ PR+ invasive ductal carcinoma, high PR-A/PR-B, 10^-8 M), the “cell proliferation, case #137” value is “decrease in cell proliferation”. Besides, the “effect on cell proliferation” value in experiment [1] (samples with high levels of PR-A expression) is listed as “inhibitory effect”. Further, the in vitro responsiveness result in experiment [1] (three PR negative tumors) is given as “no in vitro responsiveness”. The tumor growth entry in the experiment on C4-2-HI tumors (RU-486 12 mg/kg/day s.c., 5azadC 0.75 mg/kg every other day i.p., 13 days) is “no significant differences”; in the experiment on 59-HI tumors, “no significant differences”. In the experiment with C4-2-HI tumors (tumor only expresses PR-B, FIG. 15), the “tumor growth, MIF alone” value is “stimulated”. The growth of xenografts entry in experiment [2] is “prevent the growth”.
